Target: T1, Arginase (ARG1 enzyme) (Homo sapiens, UniProt P05089)
T1 construct: made in house; host or cells: Escherichia coli
T1 sequence (P05089 1-322): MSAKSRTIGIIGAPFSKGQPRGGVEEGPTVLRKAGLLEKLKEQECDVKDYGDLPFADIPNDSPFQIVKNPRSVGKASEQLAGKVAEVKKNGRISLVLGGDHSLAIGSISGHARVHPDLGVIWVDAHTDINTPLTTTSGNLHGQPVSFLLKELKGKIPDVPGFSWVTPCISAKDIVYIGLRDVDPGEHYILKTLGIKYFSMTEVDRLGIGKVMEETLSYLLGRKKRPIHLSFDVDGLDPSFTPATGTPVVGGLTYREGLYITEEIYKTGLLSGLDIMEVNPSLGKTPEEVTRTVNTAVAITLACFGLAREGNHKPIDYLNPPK
Experiment: Arginase Thioornithine Generating Assay (TOGA)
Type: biochemical
Conditions: 1.88 nM arginase, thioarginine substrate, fluorescence readout
Experimental: Arginase Thioornithine Generating Assay (TOGA)
Compounds were serially diluted in ten 3-fold steps in DMSO starting from 10 mM DMSO stocks. Compound dilutions or DMSO alone were then dispensed from the dilution plate into a Greiner black 384-well assay plate (catalog #781086) using an Echo 555 acoustic liquid handler (Labcyte).
Arginase protein was recombinantly expressed in Escherichia coli. Purified protein was then diluted in assay buffer (50 mM Tris pH 7.5, 50 mM NaCl, 1 mM manganese chloride, 0.05% bovine serum albumin to obtain a final Arginase concentration of 1.88 nM. Arginase solution (20 μL) or buffer alone (20 μL) were dispensed to wells of the assay plate using a BioRAPTR liquid dispenser (Beckman Coulter). Assay plates containing compound and ARG1 enzyme were incubated at room temperature for 30 minutes. Afterwards, 5 μL of 2.5 mM thioarginine (Cayman Chemicals) in assay buffer were added to each well of the assay plate using a BioRAPTR liquid dispenser. Plates were incubated at room temperature for 60 minutes and reactions were quenched by addition of 15 μL of […] 7-Diethylamine-3-(4-maleimidophenyl)-4-methylcoumarin (Sigma Chemical) in 70% ethanol. Plates were briefly shaken to mix and the fluorescence was measured in an Spectramax plate reader (Molecular Devices) with a 410 nm excitation wavelength and an 490 nm emission wavelength.
Potencies were calculated by […] to the four parameter logistic IC50 equation.

IC50 | Compound
> 10000 nM | O=C(O)C1CNCC1CCCB(O)O (single isomer, unassigned) [Example 21C, 4-[3-(dihydroxyboranyl)propyl]pyrrolidine-3-carboxylic acid]
124 nM | O=C(O)[C@H]1NC[C@H](O)[C@@]1(F)CCCB(O)O [Example 92B, (2R,3R,4S)-3-(3-boronopropyl)-3-fluoro-4-hydroxypyrrolidine-2-carboxylic acid]
1.58 nM | CC(C)C[C@H](N)C(=O)N[C@H]1CN[C@H](C(=O)O)[C@@H]1CCCB(O)O [Example 42, (2S,3R,4R)-4-((S)-2-amino-4-methylpentanamido)-3-(3-boronopropyl)pyrrolidine-2-carboxylic acid]
289 nM | NC(=O)[C@@]1(CCCB(O)O)CCN[C@@H]1C(=O)O [Example 89, (2S,3S)-3-(3-boronopropyl)-3-carbamoylpyrrolidine-2-carboxylic acid]
17.7 nM | C[C@]1(CCCB(O)O)[C@@H](C(=O)O)NC[C@@H]1O [Example 76, (2S,3S,4R)-3-(3-boronopropyl)-4-hydroxy-3-methylpyrrolidine-2-carboxylic acid]
83300 nM | O=C(O)[C@@H]1NCCC[C@H]1CCCB(O)O [Example 1C, (2R,3R)-3-[3-(dihydroxyborany)propy]piperidinyl-2-carboxylic acid]
17 nM | C[C@]1(CCCB(O)O)[C@@H](C(=O)O)NC[C@@H]1N [Example 71, (2S,3R,4R)-4-amino-3-(3-boronopropyl)-3-methylpyrrolidine-2-carboxylic acid]
377 nM | O=C(O)[C@H]1NCCC[C@H]1CCCB(O)O (single isomer, unassigned) [Example 1B]
70 nM | C[C@]1(C(=O)O)NCC[C@H]1CCCB(O)O [Example 16A, (3R)-3-[3-(dihydroxyboranyl)propyl]-2-methyl-L-proline]
5370 nM | O=C(O)[C@]1(CCN2CCCCC2)CC(CCB(O)O)CN1 (stereo partly drawn) [Example 19, 4-[2-(dihydroxyboranyl)ethyl]-2-[2-(piperidin-1-yl)ethyl]proline]
3660 nM | O=C(O)[C@@H]1NCCC[C@@H]1CCCB(O)O (single isomer, unassigned) [Example 1A]
> 10000 nM | CC1CC(CCCB(O)O)[C@@H](C(=O)O)N1 (stereo partly drawn) [Example 17, 3-[3-(dihydroxyboranyl)propyl]-5-methylproline]
2 nM | N[C@H](C(=O)N[C@H]1CN[C@H](C(=O)O)[C@@H]1CCCB(O)O)C1Cc2ccccc2C1 [Example 48, (2S,3R,4R)-4-((S)-2-amino-2-(2,3-dihydro-1H-inden-2-yl)acetamido)-3-(3-boronopropyl)pyrrolidine-2-carboxylic acid]
475 nM | O=C(O)[C@H]1NC[C@@H](O)[C@@H]1CCCB(O)O (single isomer, unassigned) [Example 20A]
22800 nM | O=C(O)[C@H]1NCCC[C@@H]1CCCB(O)O (single isomer, unassigned) [Example 1D]
> 10000 nM | O=C(O)[C@H]1NC[C@H](O)[C@@H]1CCCB(O)O [Example 82, (2S,3R,4R)-3-(3-boronopropyl)-4-hydroxypyrrolidine-2-carboxylic acid]
28.9 nM | O=C(O)[C@H]1NCC[C@]1(CCCB(O)O)C(F)F [Example 84, (2S,3S)-3-(3-boronopropyl)-3-(difluoromethyl)pyrrolidine-2-carboxylic acid]
> 10000 nM | O=C(O)[C@H]1NC[C@@H](O)[C@]1(F)CCCB(O)O [Example 92C, (2R,3S,4R)-3-(3-boronopropyl)-3-fluoro-4-hydroxypyrrolidine-2-carboxylic acid]

Compound | IC50
O=C(O)[C@H]1NCCO[C@H]1CCCB(O)O [Example 52, (2S,3S)-2-(3-boronopropyl)morpholine-3-carboxylic acid] | 211 nM
O=C(O)[C@H]1NCCC1CCCB(O)O (stereo partly drawn) [Example 9, 3-[3-(dihydroxyboranyl)propyl]-L-proline] | 113 nM
O=C(O)[C@H]1NC[C@H]1CCCB(O)O [Example 8B, (2S,3R)-3-[3-(dihydroxyboranyl)propyl]azetidine-2-carboxylic acid] | 447 nM
